{"source": "ChEMBL document CHEMBL4251724", "about": "“Ypaoamides B and C, Linear Lipopeptides from an Okeania sp. Marine Cyanobacterium” (J Nat Prod, 2018)", "type_in_all_cases": "cell-based", "key": {"L6 [1]": {"test_system": "L6", "assay": "Cytotoxicity against rat L6 cells assessed as reduction in cell viability at 10 to 40 uM after 16 hrs by MTT assay", "details": "l6, 16 h"}, "L6 [2]": {"test_system": "L6", "assay": "Activation of AMPK in rat L6 cells assessed as glucose uptake after 16 hrs"}, "L6 [3]": {"test_system": "L6", "assay": "Activation of AMPK in rat L6 cells assessed as glucose uptake at 40 uM in presence of AMPK inhibitor compound C after 8 hrs"}, "L6 [4]": {"test_system": "L6", "assay": "Activation of AMPK in rat L6 cells assessed as increase in AMPK phosphorylation at 40 uM by Western blot analysis"}}, "note": "Activity calls are given as the source filed them. The calls are words filed in the database; no cut-off is given here.", "data": [{"smiles": "CO/C(=C/C(=O)N1C(=O)C=C[C@@H]1C)C/C(=C/Cl)CNC(=O)CCCCC(C)(C)C", "values": [{"measurement": "Activity", "setting": "L6 [1]", "value": "Non-Toxic"}, {"measurement": "Activity", "setting": "L6 [2]", "value": "Dose-dependent effect"}]}, {"smiles": "CO/C(=C/C(=O)N1C(=O)C=C[C@@H]1CC(C)C)CCNC(=O)CCCCC(C)(C)C", "values": [{"measurement": "Activity", "setting": "L6 [1]", "value": "Non-Toxic"}, {"measurement": "Activity", "setting": "L6 [3]", "value": "inactive"}, {"measurement": "Activity", "setting": "L6 [2]", "value": "Dose-dependent effect"}, {"measurement": "Activity", "setting": "L6 [4]", "value": "Active"}]}]}
